Measurements from the NIST ThermoML archive (doi:10.1021/je060271a).
Values joined by “and” are separate entries in the source; they are usually repeats but may differ in a detail not shown here. Equal entries are not always repeated.

Conditions: Liquid, Vibrating tube method

CCCCCC(=O)OCC(COC(=O)CCCCC)(COC(=O)CCCCC)COC(=O)CCCCC [pentaerythritol tetrahexanoate]
Conditions	mass density
323.17 K, 28058 kPa	990.9 kg/m3
323.17 K, 28086 kPa	991 kg/m3
323.17 K, 28114 kPa	991 kg/m3
323.17 K, 28143 kPa	991 kg/m3
323.17 K, 28171 kPa	991 kg/m3
323.17 K, 28198 kPa	991 kg/m3
323.17 K, 28227 kPa	991 kg/m3
323.17 K, 28250 kPa	991 kg/m3
323.17 K, 28280 kPa	991.1 kg/m3
323.17 K, 32281 kPa	993.5 kg/m3
323.17 K, 32302 kPa	993.5 kg/m3
323.17 K, 32323 kPa	993.5 kg/m3
323.17 K, 32340 kPa	993.5 kg/m3
323.17 K, 32354 kPa	993.5 kg/m3
323.18 K, 15635 kPa	983.3 kg/m3
323.18 K, 15665 kPa	983.3 kg/m3
323.18 K, 15689 kPa	983.4 kg/m3
323.18 K, 15719 kPa	983.4 kg/m3
323.18 K, 15747 kPa	983.4 kg/m3
323.18 K, 15770 kPa	983.3 kg/m3
323.18 K, 15797 kPa	983.4 kg/m3
323.18 K, 15822 kPa	983.4 kg/m3
323.18 K, 16186 kPa	983.7 kg/m3
323.18 K, 16212 kPa	983.6 kg/m3
323.18 K, 16234 kPa	983.7 kg/m3
323.18 K, 16261 kPa	983.7 kg/m3
323.18 K, 16283 kPa	983.8 kg/m3
323.18 K, 25706 kPa	989.7 kg/m3
343.14 K, 219.9 kPa	957.2 kg/m3
343.14 K, 220 kPa	957.3 kg/m3
343.14 K, 220.3 kPa	957.1 kg/m3 and 957.2 kg/m3
343.14 K, 223.6 kPa	957.3 kg/m3
343.14 K, 348.7 kPa	957.3 kg/m3
343.14 K, 348.9 kPa	957.2 kg/m3
343.14 K, 349 kPa	957.3 kg/m3
343.14 K, 349.6 kPa	957.4 kg/m3
343.14 K, 350.2 kPa	957.3 kg/m3
343.14 K, 350.4 kPa	957.2 kg/m3
343.14 K, 350.6 kPa	957.3 kg/m3
343.14 K, 351.1 kPa	957.3 kg/m3
343.14 K, 351.3 kPa	957.3 kg/m3
343.14 K, 387.3 kPa	957.4 kg/m3
343.14 K, 387.4 kPa	957.2 kg/m3
343.14 K, 388.3 kPa	957.4 kg/m3 and 957.5 kg/m3
343.14 K, 388.5 kPa	957.4 kg/m3
343.14 K, 388.8 kPa	957.5 kg/m3
343.14 K, 389.7 kPa	957.3 kg/m3
343.14 K, 390.2 kPa	957.5 kg/m3
343.14 K, 754.9 kPa	957.7 kg/m3
343.14 K, 762.4 kPa	957.6 kg/m3
343.14 K, 769.9 kPa	957.7 kg/m3
343.14 K, 778.4 kPa	957.6 kg/m3
343.14 K, 925.3 kPa	957.8 kg/m3
343.14 K, 935.1 kPa	957.8 kg/m3
343.14 K, 947.2 kPa	957.8 kg/m3
343.14 K, 956.9 kPa	957.8 kg/m3
343.14 K, 1145.7 kPa	958 kg/m3
343.14 K, 1156.5 kPa	958 kg/m3
343.14 K, 1168 kPa	958 kg/m3
343.14 K, 1181.7 kPa	958 kg/m3
343.14 K, 1193 kPa	958 kg/m3
343.14 K, 1206.5 kPa	958 kg/m3
343.14 K, 1218.3 kPa	958 kg/m3
343.14 K, 1230.1 kPa	958.1 kg/m3
343.14 K, 1242.1 kPa	958.1 kg/m3
343.14 K, 1256.4 kPa	958.1 kg/m3
343.14 K, 1268.3 kPa	958 kg/m3
343.14 K, 2111 kPa	958.7 kg/m3
343.14 K, 2133.5 kPa	958.7 kg/m3
343.14 K, 2152.4 kPa	958.7 kg/m3
343.14 K, 2172.4 kPa	958.8 kg/m3
343.14 K, 2192.8 kPa	958.8 kg/m3
343.14 K, 2212.6 kPa	958.8 kg/m3
343.14 K, 2232.6 kPa	958.8 kg/m3
343.14 K, 2256.5 kPa	958.8 kg/m3
343.14 K, 2276.6 kPa	958.9 kg/m3
343.14 K, 2301.1 kPa	958.8 kg/m3
343.14 K, 2322.3 kPa	958.9 kg/m3
343.14 K, 2342.9 kPa	958.8 kg/m3
343.14 K, 2498.5 kPa	959.1 kg/m3
343.14 K, 2520.2 kPa	958.9 kg/m3
343.14 K, 2541.5 kPa	959.1 kg/m3
343.14 K, 2567.9 kPa	959 kg/m3
343.14 K, 2590.1 kPa	959.1 kg/m3
343.14 K, 2612.1 kPa	959 kg/m3
343.14 K, 2638.5 kPa	959.1 kg/m3
343.14 K, 2660.7 kPa	959.1 kg/m3
343.14 K, 2683.4 kPa	959.2 kg/m3
343.14 K, 6196.6 kPa	961.7 kg/m3
343.14 K, 6236.7 kPa	961.9 kg/m3
343.14 K, 6269.8 kPa	961.8 kg/m3
343.14 K, 6638.6 kPa	962.2 kg/m3
343.14 K, 6667.6 kPa	962.1 kg/m3
343.14 K, 6695.6 kPa	962.2 kg/m3
343.14 K, 6726.9 kPa	962.2 kg/m3
343.14 K, 7550.4 kPa	962.9 kg/m3
343.14 K, 7576.5 kPa	962.8 kg/m3
343.14 K, 7602.9 kPa	962.8 kg/m3
343.14 K, 7633.5 kPa	962.9 kg/m3
343.14 K, 7659 kPa	962.9 kg/m3
343.14 K, 7685.3 kPa	963 kg/m3
343.14 K, 7716.2 kPa	962.9 kg/m3
343.14 K, 7742 kPa	963 kg/m3
343.14 K, 8529.9 kPa	963.5 kg/m3
343.14 K, 8557.5 kPa	963.5 kg/m3
343.14 K, 8590 kPa	963.6 kg/m3
343.14 K, 8617.8 kPa	963.7 kg/m3
343.14 K, 8680.1 kPa	963.6 kg/m3
343.14 K, 8708.7 kPa	963.8 kg/m3
343.14 K, 11319 kPa	965.5 kg/m3
343.14 K, 11356 kPa	965.5 kg/m3
343.14 K, 11392 kPa	965.6 kg/m3
343.14 K, 11435 kPa	965.6 kg/m3
343.14 K, 11471 kPa	965.7 kg/m3
343.14 K, 11507 kPa	965.8 kg/m3
343.14 K, 11550 kPa	965.7 kg/m3
343.14 K, 11586 kPa	965.8 kg/m3
343.14 K, 11622 kPa	965.8 kg/m3
343.14 K, 11664 kPa	966 kg/m3
343.14 K, 12063 kPa	966.2 kg/m3
343.14 K, 12100 kPa	966.1 kg/m3
343.14 K, 12131 kPa	966.2 kg/m3
343.14 K, 12213 kPa	966.1 kg/m3
343.14 K, 17659 kPa	969.9 kg/m3
343.14 K, 18549 kPa	970.7 kg/m3
343.14 K, 18578 kPa	970.7 kg/m3
343.14 K, 18602 kPa	970.7 kg/m3
343.14 K, 18626 kPa	970.7 kg/m3
343.14 K, 18893 kPa	970.8 kg/m3
343.14 K, 20126 kPa	971.6 kg/m3 and 971.7 kg/m3
343.14 K, 20127 kPa	971.7 kg/m3
343.14 K, 20128 kPa	971.7 kg/m3
343.14 K, 25755 kPa	975.4 kg/m3
343.14 K, 25795 kPa	975.4 kg/m3
343.14 K, 25825 kPa	975.4 kg/m3
343.14 K, 25856 kPa	975.4 kg/m3
343.14 K, 25888 kPa	975.5 kg/m3
343.14 K, 25925 kPa	975.6 kg/m3
343.14 K, 25957 kPa	975.5 kg/m3
343.14 K, 25988 kPa	975.6 kg/m3
343.14 K, 26018 kPa	975.6 kg/m3
343.14 K, 26052 kPa	975.6 kg/m3
343.15 K, 203.3 kPa	957.3 kg/m3
343.15 K, 203.6 kPa	957.2 kg/m3 and 957.3 kg/m3 and 957.1 kg/m3
